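Values below derive from 48-hour exposures of cells grown in 96-well plates, with endpoints linearly interpolated between the two concentrations bracketing the appropriate inhibition level. GI50 marks 50% less growth.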 The source made the active and inactive calls. Rule as the data show it: active = GI50 up to about 1.1 µM and inactive = higher.
Key:
Assay in all cases: DTP human tumour cell line panel, 48 h
HCT-116 = test system: HCT-116
A549 = test system: A549
SF-268 = test system: SF-268
UACC-62 = test system: UACC-62
OVCAR-5 = test system: OVCAR-5
Malme-3M = test system: Malme-3M
MCF7 = test system: MCF7
M14 = test system: M14
MDA-N = test system: MDA-N
LOX IMVI = test system: LOX IMVI
786-0 = test system: 786-0
SK-OV-3 = test system: SK-OV-3
SK-MEL-28 = test system: SK-MEL-28
OVCAR-8 = test system: OVCAR-8
KM12 = test system: KM12
NCI-H226 = test system: NCI-H226
EKVX = test system: EKVX
SK-MEL-5 = test system: SK-MEL-5
SN12C = test system: SN12C
OVCAR-3 = test system: OVCAR-3

Measured: GI50

Cn1c2c(c3ccccc31)CCN1OCC=C[C@@H](C(=O)O)[C@@H]21
inactive: HCT-116 > 100 µM | A549 > 100 µM | SF-268 > 100 µM | UACC-62 > 100 µM | OVCAR-5 > 100 µM | Malme-3M > 100 µM | MCF7 > 100 µM | M14 > 100 µM | MDA-N > 100 µM | LOX IMVI > 100 µM | 786-0 > 100 µM | SK-OV-3 > 100 µM | SK-MEL-28 > 100 µM | OVCAR-8 > 100 µM | KM12 > 100 µM | NCI-H226 > 100 µM | EKVX > 100 µM | SK-MEL-5 > 100 µM | SN12C > 100 µM | OVCAR-3 > 100 µM

Cc1n[n+](CC(=O)c2ccccc2)c2sc(N)nn12
inactive: HCT-116 > 100 µM | A549 96.8 µM | SF-268 > 100 µM | UACC-62 > 100 µM | OVCAR-5 > 100 µM | Malme-3M > 100 µM | MCF7 > 100 µM | M14 > 100 µM | MDA-N > 100 µM | LOX IMVI > 100 µM | 786-0 > 100 µM | SK-OV-3 > 100 µM | SK-MEL-28 > 100 µM | OVCAR-8 > 100 µM | KM12 > 100 µM | NCI-H226 > 100 µM | EKVX > 100 µM | SK-MEL-5 72.3 µM | SN12C > 100 µM | OVCAR-3 > 100 µM

O=[N+]([O-])C(=C(Nc1ccccc1)Nc1ccccc1)/C(Cl)=C(\Cl)[N+](=O)[O-]
inactive: HCT-116 2.73 µM | A549 10.8 µM | SF-268 2.98 µM | UACC-62 4.58 µM | OVCAR-5 8.13 µM | Malme-3M 3.54 µM | MCF7 4.14 µM | M14 4.75 µM | MDA-N 2.77 µM | LOX IMVI 2.92 µM | 786-0 3.15 µM | SK-OV-3 20.3 µM | SK-MEL-28 3.62 µM | OVCAR-8 1.44 µM | KM12 3.98 µM | NCI-H226 12.7 µM | EKVX 5.62 µM | SK-MEL-5 2.02 µM | SN12C 2.48 µM | OVCAR-3 2.82 µM

CC1(CCCC2(C)CCNC2=O)OCCO1 (stereo not given)
inactive: HCT-116 > 10 µM | A549 > 10 µM | SF-268 > 10 µM | UACC-62 > 10 µM | OVCAR-5 > 10 µM | Malme-3M > 10 µM | MCF7 > 10 µM | M14 > 10 µM | MDA-N > 10 µM | LOX IMVI > 10 µM | 786-0 > 10 µM | SK-OV-3 > 10 µM | SK-MEL-28 > 10 µM | OVCAR-8 > 10 µM | KM12 > 10 µM | NCI-H226 > 10 µM | EKVX > 10 µM | SK-MEL-5 > 10 µM | SN12C > 10 µM | OVCAR-3 > 10 µM

CC1C(=O)OC2CC[N+]3([O-])CC=C(COC(=O)C(C)(O)C1(C)O)C23 (stereo not given)
inactive: HCT-116 > 100 µM | A549 > 100 µM | SF-268 > 100 µM | UACC-62 > 100 µM | OVCAR-5 > 100 µM | Malme-3M > 100 µM | MCF7 > 100 µM | M14 > 100 µM | MDA-N > 100 µM | LOX IMVI > 100 µM | 786-0 > 100 µM | SK-OV-3 > 100 µM | SK-MEL-28 > 100 µM | OVCAR-8 > 100 µM | KM12 > 100 µM | NCI-H226 > 100 µM | EKVX > 100 µM | SK-MEL-5 > 100 µM | SN12C > 100 µM | OVCAR-3 > 100 µM

Oc1ccc2ccccc2c1CCc1c(O)ccc2ccccc12
inactive: HCT-116 12.6 µM | A549 11.7 µM | SF-268 11 µM | UACC-62 9.29 µM | OVCAR-5 14.1 µM | Malme-3M 13.4 µM | MCF7 12.7 µM | M14 15.5 µM | MDA-N 13.5 µM | LOX IMVI 14.3 µM | 786-0 16.2 µM | SK-OV-3 15.8 µM | SK-MEL-28 10.6 µM | OVCAR-8 14.5 µM | KM12 11.8 µM | NCI-H226 13.7 µM | EKVX 13.4 µM | SK-MEL-5 12.6 µM | SN12C 11.2 µM | OVCAR-3 4.42 µM

c1cc(CCN2CCCCC2)ccn1
inactive: HCT-116 > 100 µM | A549 > 100 µM | SF-268 > 100 µM | UACC-62 > 100 µM | OVCAR-5 > 100 µM | Malme-3M > 100 µM | MCF7 > 100 µM | M14 > 100 µM | MDA-N > 100 µM | LOX IMVI > 100 µM | 786-0 > 100 µM | SK-OV-3 > 100 µM | SK-MEL-28 > 100 µM | OVCAR-8 > 100 µM | KM12 > 100 µM | NCI-H226 > 100 µM | EKVX > 100 µM | SK-MEL-5 > 100 µM | SN12C > 100 µM | OVCAR-3 > 100 µM

CN(C)CCN1C(=O)CC[C@@]2(C)C1=CC[C@@H]1[C@@H]2CC[C@@]2(C)[C@H]1CC[C@]2(C)O
inactive: HCT-116 71.6 µM | A549 > 100 µM | SF-268 > 100 µM | UACC-62 > 100 µM | OVCAR-5 > 100 µM | Malme-3M > 100 µM | MCF7 > 100 µM | M14 > 100 µM | MDA-N > 100 µM | LOX IMVI > 100 µM | 786-0 > 100 µM | SK-OV-3 > 100 µM | SK-MEL-28 > 100 µM | OVCAR-8 > 100 µM | KM12 > 100 µM | NCI-H226 > 100 µM | EKVX > 100 µM | SK-MEL-5 > 100 µM | SN12C > 100 µM | OVCAR-3 > 100 µM

C=C1CC2(CC(c3ccccc3C)OC(c3ccccc3C)C2)OC1=O (stereo not given)
inactive: HCT-116 1.82 µM | A549 8.47 µM | SF-268 1.83 µM | UACC-62 1.54 µM | OVCAR-5 13.2 µM | Malme-3M 1.71 µM | MCF7 1.85 µM | M14 1.59 µM | MDA-N 1.75 µM | LOX IMVI 1.58 µM | 786-0 1.96 µM | SK-OV-3 11.6 µM | SK-MEL-28 1.82 µM | OVCAR-8 2.19 µM | KM12 2.18 µM | NCI-H226 7.78 µM | EKVX 16.1 µM | SK-MEL-5 1.86 µM | SN12C 1.97 µM | OVCAR-3 1.78 µM

CCN(CC(=O)O)CC(=O)O
inactive: HCT-116 > 100 µM | A549 > 100 µM | SF-268 > 100 µM | UACC-62 > 100 µM | OVCAR-5 > 100 µM | Malme-3M > 100 µM | MCF7 > 100 µM | M14 > 100 µM | MDA-N > 100 µM | LOX IMVI > 100 µM | 786-0 > 100 µM | SK-OV-3 > 100 µM | SK-MEL-28 > 100 µM | OVCAR-8 > 100 µM | KM12 > 100 µM | NCI-H226 > 100 µM | EKVX > 100 µM | SK-MEL-5 > 100 µM | SN12C > 100 µM | OVCAR-3 > 100 µM

COc1cc(OC)cc(Oc2nc3ccccc3nc2C(F)(F)F)c1
inactive: HCT-116 > 100 µM | A549 > 100 µM | SF-268 68.4 µM | UACC-62 > 100 µM | OVCAR-5 45.1 µM | Malme-3M > 100 µM | MCF7 > 100 µM | M14 53.8 µM | MDA-N 3.66 µM | LOX IMVI > 100 µM | 786-0 > 100 µM | SK-OV-3 > 100 µM | SK-MEL-28 > 100 µM | OVCAR-8 > 100 µM | KM12 > 100 µM | NCI-H226 > 100 µM | EKVX > 100 µM | SK-MEL-5 76.7 µM | SN12C > 100 µM | OVCAR-3 > 100 µM

CNC(=O)C1CCC(=O)N1CN(C(C)=O)c1ccccc1 (stereo not given)
inactive: HCT-116 > 100 µM | A549 > 100 µM | SF-268 > 100 µM | UACC-62 > 100 µM | OVCAR-5 > 100 µM | Malme-3M > 100 µM | MCF7 > 100 µM | M14 > 100 µM | MDA-N > 100 µM | LOX IMVI > 100 µM | 786-0 > 100 µM | SK-OV-3 > 100 µM | SK-MEL-28 > 100 µM | OVCAR-8 > 100 µM | KM12 > 100 µM | NCI-H226 > 100 µM | EKVX > 100 µM | SK-MEL-5 > 100 µM | SN12C > 100 µM | OVCAR-3 > 100 µM

From ChEMBL document CHEMBL1201862, “PubChem BioAssay data set” (2004)
